Results: patent US11746354B2, “Homology dependent repair genome editing” (Inari Agriculture Technology, Inc., priority 2019, dated 2023)

Tested on: maize (Zea mays) r1-colored1 gene
Experiment: HDR editing of an endogenous gene in maize protoplasts (RNP + dsDNA donor template, MiSeq sequencing)
Assay type: cell-based
Set-up: unit not given here
Conditions: 5 μM compound, 0.1% DMSO, B104 maize protoplasts, 48 hours at 26 degrees Celsius in the dark, average of triplicate samples; for Hypoxia Avg. (HDR): hypoxic conditions; for Normoxia Avg. (HDR): normoxic conditions
Method: This example describes a second set of experiments which investigated the effects of the 81 small molecules previously identified in the “traffic light” screen (Example 1) on HDR efficiency in editing an endogenous gene, the maize (Zea mays) r1-colored1 gene with partial genomic sequence SEQ ID NO: 5. A ribonucleoprotein (RNP) was prepared with a guide RNA designed to edit the promoter located at positions 313-333 of SEQ ID NO:5. A donor template was provided as a dsDNA for HDR repair. The experiments were carried out with protoplasts produced from etiolated leaves of B104 maize grown in the dark for 11 days. The protoplasts were co-transfected with the RNP and donor template. Transfected cells were incubated 48 hours at 26 degrees Celsius in the dark under either normoxic or hypoxic conditions with the indicated negative controls, positive controls, and small molecules and then harvested. The negative controls comprised cells transfected with the RNP only (no donor template). DMSO controls comprised the RNP and donor template and DMSO at a final concentration of 0.5% by volume DMSO. The positive control was a mixture of KU-0060648 (CAS No. 881375-00-4; Fischer Scientific, Waltham, Mass., USA), STL127705 (7-[2-(3,4-dimethoxyphenyl)ethyl]amino-3-(3-fluorophenyl)pyrimido[4,5-d]pyrimidine-2,4(1H,3H)-dione); Vitas-M, Champaign, Ill., USA), NU7441 (CAS No. 503468-95-9; Fischer Scientific Waltham, Mass., USA), and SCR7 pyrazine (CAS No. 14892-97-8; Tocris, Minneapolis, Minn., USA) (all at a stock concentration of 5 mM in DMSO) that was provided to the protoplasts at a final concentration of each of the four compounds of 5 μM. Certain positive control compounds have been reported to increase CRISPR-mediated HDR (Robert et al. 2015; Chu et al., 2015). All of the tested small molecules were also provided to the protoplasts at a final concentration of 5 μM of the compound and a final DMSO concentration of 0.1% by volume. Genomic DNA was isolated using KAPA Pure Bead capture (Kapa Biosystem) and the isolated gDNA was used as the template for a PCR with PHUSION FLASH (ThermoFisher). Samples were cleaned with KAPA Pure Bead capture and Illumina libraries were prepared and sequenced on MiSeq.

| SMILES | Hypoxia Avg. (HDR) | Normoxia Avg. (HDR) |
| --- | --- | --- |
| Cc1ccc(C(=O)N(CCCN)[C@@H](c2oc3cc(Cl)ccc3c(=O)c2Cc2ccccc2)C(C)C)cc1.Cl [SB 743921 Hydrochloride] | 2.97 | 4.76 |
| CN(C)NC(=O)CCC(=O)O [Daminozide] | 0.48 | 4.57 |
| c1ccc(-c2ccc(CNc3nc(-c4ccccn4)nnc3-c3ccccc3)cc2)cc1 [ML 228] | 4.49 | 0.46 |
| CN(CCOc1ccc(CC2SC(=O)NC2=O)cc1)c1ccccn1 (stereo not drawn) [Rosiglitazone] | 4.97 | 3.20 |
| O=C1N=C(NCc2cccs2)S/C1=C\c1ccc2ncccc2c1 [Ro 3306] | 4.91 | 1.64 |
| Cc1oc(-c2ccccc2)nc1CCOc1ccc(CC2SC(=O)NC2=O)c2sccc12 (stereo not drawn) [Edaglitazone] | 6.28 | 3.56 |
| CC(C)(C)c1ccc(S(=O)(=O)NCc2ccc(C(=O)Nc3cccnc3)cc2)cc1 [STF 31] | 5.00 | 0.40 |
| Cc1ccc(C(=O)N(CCCN)[C@@H](c2[nH]c3cc(Cl)ccc3c(=O)[n+]2Cc2ccccc2)C(C)C)cc1 [Ispinesib] | 4.04 | 3.36 |
| CC(C)Cn1c(=O)n(C)c(=O)c2nc[nH]c21 [IBMX] | 4.23 | 3.05 |
| CC(=O)[C@H]1CC[C@H]2[C@@H]3CC[C@@H]4C[C@H](O)CC[C@]4(C)[C@H]3CC[C@]12C [Pregnanolone] | 2.52 | 4.43 |
| O=S(=O)(NCCCCCCc1ccccc1)c1cccc2c(Cl)cccc12 [SC-9] | 5.11 | 2.67 |
| Nc1nccc(-c2ccc3noc(-c4ccc(Cl)cc4)c3c2)n1 [PIM-1 Inhibitor 2] | 5.19 | 1.37 |
| CSc1nc(-c2ccc(F)cc2)c(-c2ccnc(NC(C)c3ccccc3)c2)[nH]1 (stereo not drawn) [ML 3403] | 4.36 | 1.47 |
| CC(=O)NCCNc1cc(Cl)nn2c(-c3cccc(S(=O)(=O)N(C)C)c3)c(C)nc12 [MI 14] | 7.75 | 0.37 |
| Nc1nc(Cl)nc2c1ncn2[C@@H]1O[C@H](CO)[C@@H](O)[C@H]1O [2-Chloroadenosine] | 5.00 | 2.45 |
